# Earlier results, collected in patent US20220235022A1 (priority 2019, published 2022).
# What was measured:
# [1] = conjugate acid of the base, approximate values
# [2] = compared with Δ^9-THC; reported
SMILES,pKa (conjugate acid in DMSO) [1],less potent in terms of psychoactivity [2]
"Cc1cccc(C)n1 [2,6-dimethylpyridine]",4.46,
"CCCCCc1cc(O)c2c(c1)OC(C)(C)[C@@H]1CC=C(C)C[C@@H]21 [Δ^8-THC, Δ^8-tetrahydrocannabinol]",,approximately 50%
